For one experiment, the target named is T1, Human M2 (Homo sapiens, UniProt P08172).
T1 construct: expressed in transfected cells; host or cells: CHO-K1
T1 sequence (P08172 1-466): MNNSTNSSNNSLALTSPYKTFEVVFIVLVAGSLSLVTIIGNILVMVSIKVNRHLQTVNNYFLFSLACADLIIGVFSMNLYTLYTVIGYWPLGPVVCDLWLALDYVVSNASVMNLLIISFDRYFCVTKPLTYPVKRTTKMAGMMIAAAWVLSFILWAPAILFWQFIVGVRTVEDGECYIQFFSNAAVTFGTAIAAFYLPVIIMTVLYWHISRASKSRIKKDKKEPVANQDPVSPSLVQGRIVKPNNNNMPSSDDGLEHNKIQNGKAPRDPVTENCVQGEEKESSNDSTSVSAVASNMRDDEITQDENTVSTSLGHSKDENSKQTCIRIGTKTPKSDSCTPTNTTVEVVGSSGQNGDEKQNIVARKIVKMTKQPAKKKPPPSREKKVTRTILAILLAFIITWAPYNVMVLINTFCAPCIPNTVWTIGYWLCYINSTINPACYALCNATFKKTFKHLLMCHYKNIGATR
Description: M2 cell-based functional assay, calcium mobilization (selectivity). The note with it: for Emax at 30 µM: % ACh maximum at 30 μM; for EC50 / Human M2 EC50: M2 cell-based functional assay, calcium flux. The procedure:
(§1) The high throughput assay was employed to measure receptor-induced mobilization of intracellular calcium to determine compound activity. Test compound was added to cells expressing the muscarinic receptors that were loaded with calcium sensitive fluorescent dye. After a ˜2.5 minute incubation period, a submaximal (EC20) concentration of acetylcholine was added, and the response measured. This kinetic assay allows for simultaneous screening and potency determination of multiple pharmacological modes of action including agonist and potentiator activity. CHO-K1 cells stably expressing muscarinic receptors were plated in growth medium lacking G418 and hygromycin at 15,000 cells/20 μL/well in Greiner 384-well black-walled, tissue culture (TC)-treated, clear-bottom plates (Greiner Bio-One). Cells were incubated overnight at 37° C. and 5% CO2. The next day, calcium assay buffer (Hank's balanced salt solution (HBSS), 20 mM HEPES, 2.5 mM Probenecid, 4.16 mM sodium bicarbonate (Sigma-Aldrich, St. Louis, MO)) was prepared to dilute compounds, agonists, and Fluo-4-acetomethoxyester (Fluo-4-AM), fluorescent calcium indicator dye. Compounds were serially diluted 1:3 into 10 point concentration response curves in DMSO using the Bravo Liquid Handler (Agilent, Santa Clara, CA), transferred to a 384 well daughter plates using an Echo acoustic liquid handler (Beckman Coulter, Indianapolis, Indiana), and diluted in assay Buffer to a 2× final concentration. The agonist plates were prepared using acetylcholine (ACh, Sigma-Aldrich, St. Louis, MO) concentrations for the EC20 and ECMAX responses by diluting in assay buffer to a 5× final concentration. The 2× dye solution (2.3 μM) was prepared by mixing a 2.3 mM Fluo-4-AM stock in DMSO with 10% (w/v) pluronic acid F-127 in a 1:1 ratio in assay buffer. Using a microplate washer (BioTek, Winooski, VT), cells were washed with assay buffer for 3 times to remove medium. After the final wash, 20 μL of assay buffer remained in the cell plates. Immediately, 20 μL of the 2× dye solution (final 1.15 μM) was added to each well of the cell plate using a Multidrop Combi dispenser (Thermo Fisher, Waltham, MA). After cells were incubated with the dye solutions for 45 min at 37° C. in the presence of 5% CO2, the dye solutions were removed and replaced with assay buffer using a microplate washer, leaving 20 μL of assay buffer in the cell plate.
The prepared compound, agonist, and cell plates were placed inside the Functional Drug Screening System uCell (FDSS uCell, Hamamatsu, Japan) to measure the calcium flux. The triple add protocol was used to measure Ca kinetics; Compound, ACh for EC20, and ACh for EC80 adds in an order. Briefly, after establishment of a fluorescence baseline for 2 seconds (excitation, 480 nm; emission, 530 nm), first add occurred by adding 20 μL of test compound to the cells, and the response was measured for 140 seconds. This is followed by second add; 10 μL (5×) of an EC20 concentration of ACh agonist was added to the cells, and the response of the cells was measured for 125 seconds. Immediately, the third add occurred by adding […] (5×) of an EC80 concentration of ACh and the response of the cells was measured for 90 seconds. Acetylcholine-mediated maximum response (ECmax) was measured by adding 1 mM ACh as third add in the control wells. DMSO vehicle was added to the control wells in the first add for assessing ACh EC20, EC80, and ECmax responses. Calcium fluorescence was recorded as fold over basal fluorescence and raw data were normalized to the maximal response to ACh agonist. Agonist activity was analyzed as a concentration-dependent increase in calcium mobilization upon compound addition. Positive allosteric modulator activity was analyzed as a concentration-dependent increase in the EC20 acetylcholine response. Antagonist activity was analyzed as a concentration-dependent decrease in the EC80 acetylcholine response. […]

The target in the next experiment is T2, Human M4 (Homo sapiens, UniProt P08173).
T2 construct: expressed in transfected cells
T2 sequence (P08173 1-479): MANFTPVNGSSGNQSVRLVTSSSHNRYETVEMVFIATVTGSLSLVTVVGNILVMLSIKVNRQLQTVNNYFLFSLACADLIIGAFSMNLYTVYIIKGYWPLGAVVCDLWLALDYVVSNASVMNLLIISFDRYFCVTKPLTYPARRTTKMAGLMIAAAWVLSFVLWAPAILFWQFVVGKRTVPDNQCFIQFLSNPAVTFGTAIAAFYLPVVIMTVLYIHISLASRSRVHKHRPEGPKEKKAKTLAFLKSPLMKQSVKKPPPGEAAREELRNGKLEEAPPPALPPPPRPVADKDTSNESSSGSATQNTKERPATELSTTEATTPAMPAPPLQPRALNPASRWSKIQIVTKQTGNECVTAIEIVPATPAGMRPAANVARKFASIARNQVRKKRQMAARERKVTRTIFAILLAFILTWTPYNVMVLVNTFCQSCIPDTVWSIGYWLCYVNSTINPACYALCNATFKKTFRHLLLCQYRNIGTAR
The experiment in a line: M4 cell-based functional assay, calcium mobilization, potentiation of ACh EC20. The note with it: for Emax at 30 µM: % ACh maximum at 30 μM; for EC50: CHO-K1 hM4-Gqi5 cells, calcium flux, ACh EC20. The procedure:
Human and rat M4 cDNAs, along with the chimeric G protein Gqi5, were transfected into Chinese hamster ovary (CHO-K1) cells purchased from the American Type Culture Collection using Lipofectamine2000. The transfected cells were subjected to selection antbiotic treatment to generate stable cell lines; G418 sulfate (1 mg/ml) for selecting M4 expressing cells and Hygromycin B (500 μg/mL) for selecting Gqi5 expressing cells. The resulting polyclones were further screened to obtain monoclones of hM4-Gqi5 and rM4-Gqi5 for compound screening assay. Stable monoclone cells were maintained in Ham's F-12 medium containing 10% heat-inactivated fetal bovine serum (FBS), 1× Antibiotic/Antimycotic, 20 mM HEPES, 500 μg/mL G418 sulfate, and 200 μg/mL Hygromycin B in 37° C. humidified incubators in the presence of 5% CO2.
as §1
The prepared compound, agonist, and cell plates were placed inside the Functional Drug Screening System uCell (FDSS uCell, Hamamatsu, Japan) to measure the calcium flux. The triple add protocol was used to measure Ca kinetics; Compound, ACh for EC20, and ACh for EC80 adds in an order. Briefly, after establishment of a fluorescence baseline for 2 seconds (excitation, 480 nm; emission, 530 nm), first add occurred by adding 20 μL of test compound to the cells, and the response was measured for 140 seconds. This is followed by second add; 10 μL (5×) of an EC20 concentration of ACh agonist was added to the cells, and the response of the cells was measured for 125 seconds. […]
In general terms: A change in cytosolic calcium serves as a functional read-out for many receptors and channels.

As a reminder, the Emax is the size of the effect at its maximum, as opposed to the concentration needed. As a reminder, the EC50 is the concentration needed to bring the measured effect to its halfway point. Take `[2H]C1(Oc2ccc3c(c2)OCCO3)CCN(c2nc3c(cc2C)C(=O)NC3)CC1` [Compound 10, 2-(4-((2,3-dihydrobenzo[b][1,4]dioxin-6-yl)oxy)piperidin-1-yl-4-d)-3-methyl-6,7-dihydro-5H-pyrrolo[3,4-b]pyridin-5-one]: at Human M2, the Emax at 30 µM came out at 60% and the EC50 is 330 nM. Further, at Human M4, the maximum response (Emax) at 30 µM amounted to 93% and the EC50 was 3 nM.
In the same order, the values of `[2H]C1([2H])Oc2ccc(OC3CCN(c4nc5nn(C)c(=O)n5c(Cl)c4C)CC3)cc2OC1([2H])[2H]` [Compound A11, 5-chloro-7-(4-((2,3-dihydrobenzo[b][1,4]dioxin-6-yl-2,2,3,3-d4)oxy)piperidin-1-yl)-2,6-dimethyl-[1,2,4]triazolo[4,3-a]pyrimidin-3(2H)-one] are 57%, 6090 nM, 90% and 12 nM.
In the same order, the values of `[2H]C1([2H])Oc2ccc(OC3CCN(c4nc5c(cc4C)C(=O)OC5)CC3)cc2OC1([2H])[2H]` [Compound 8, 2-(4-((2,3-dihydrobenzo[b][1,4]dioxin-6-yl-2,2,3,3-d4)oxy)piperidin-1-yl)-3-methylfuro[3,4-b]pyridin-5(7H)-one] are 56%, 494 nM, 104% and 3 nM.
In the case of `[2H]C1([2H])Oc2ccc(OC3CCN(c4nc5nn(CC6CN(C)CCO6)c(=O)n5cc4C)CC3)cc2OC1([2H])[2H]` (stereo not drawn) [Compound A8, 7-(4-((2,3-dihydrobenzo[b][1,4]dioxin-6-yl-2,2,3,3-d4)oxy)piperidin-1-yl)-6-methyl-2-((4-methylmorpholin-2-yl)methyl)-[1,2,4]triazolo[4,3-a]pyrimidin-3(2H)-one], the “Human M2 EC50” value on Human M2 is reported as “Inactive”. In addition, on Human M4, the Emax at 30 µM is 95% and the EC50 stood at 48 nM.
Turning to `[2H]C1([2H])Oc2ccc(OC3CCN(c4nc5n[nH]c(=O)n5c5c4CCCC5)CC3)cc2OC1([2H])[2H]` [Compound A17, 5-(4-((2,3-dihydrobenzo[b][1,4]dioxin-6-yl-2,2,3,3-d4)oxy)piperidin-1-yl)-6,7,8,9-tetrahydro-[1,2,4]triazolo[4,3-a]quinazolin-1(2H)-one], the “Human M2 EC50” value on Human M2 is “Inactive”. Further, on Human M4, the Emax at 30 µM amounted to 87% and the EC50 turned out to be 64 nM.
Consider `[2H]C1([2H])Oc2ccc(OC3CCN(c4nc5c(cc4C)C(=O)OC5C)CC3)cc2OC1([2H])[2H]` (stereo not drawn) [Compound 9, 2-(4-((2,3-dihydrobenzo[b][1,4]dioxin-6-yl-2,2,3,3-d4)oxy)piperidin-1-yl)-3,7-dimethylfuro[3,4-b]pyridin-5(7H)-one], for which, on Human M2, the maximal response (Emax) at 30 µM came out at 57% and the EC50 is 2240 nM. At Human M4, the maximum response (Emax) at 30 µM is 91% and the concentration for a half-maximal effect (EC50) came to 27 nM.
With `[2H]C1([2H])Oc2ccc(OC3CCN(c4nc5c(c(C)c4C)C(=O)NC5)CC3)cc2OC1([2H])[2H]` [Compound 13, 2-(4-((2,3-dihydrobenzo[b][1,4]dioxin-6-yl-2,2,3,3-d4)oxy)piperidin-1-yl)-3,4-dimethyl-6,7-dihydro-5H-pyrrolo[3,4-b]pyridin-5-one], the “Human M2 EC50” value at Human M2 is “inactive”. On Human M4, the Emax at 30 µM came out at 101% and the EC50 stood at 4 nM.
In the same order, the values of `[2H]C([2H])([2H])n1nc2nc(N3CCC(Oc4ccc5c(c4)OC([2H])([2H])C([2H])([2H])O5)CC3)c(C)c(C3CC3)n2c1=O` [Compound A13, 5-cyclopropyl-7-(4-((2,3-dihydrobenzo[b][1,4]dioxin-6-yl-2,2,3,3-d4)oxy)piperidin-1-yl)-6-methyl-2-(methyl-d3)-[1,2,4]triazolo[4,3-a]pyrimidin-3(2H)-one] are “Inactive”, 103% and 28 nM.
Consider `[2H]C1([2H])Oc2ccc(OC3CCN(c4nc5nn([C@H]6CCOC6)c(=O)n5cc4C)CC3)cc2OC1([2H])[2H]` [Compound A5, (S)-7-(4-((2,3-dihydrobenzo[b][1,4]dioxin-6-yl-2,2,3,3-d4)oxy)piperidin-1-yl)-6-methyl-2-(tetrahydrofuran-3-yl)-[1,2,4]triazolo[4,3-a]pyrimidin-3(2H)-one], for which, on Human M2, the Emax at 30 µM was 66% and the concentration for a half-maximal effect (EC50) was 2870 nM. At Human M4, the maximum response (Emax) at 30 µM came out at 87% and the concentration giving a half-maximal response (EC50) was found to be 12 nM.
For the molecule `[2H]C1([2H])Oc2ccc(OC3CCN(c4nc5c(cc4C)C(=O)N(C4CCCC4)C5)CC3)cc2OC1([2H])[2H]` [Compound 7, 6-cyclopentyl-2-(4-((2,3-dihydrobenzo[b][1,4]dioxin-6-yl-2,2,3,3-d4)oxy)piperidin-1-yl)-3-methyl-6,7-dihydro-5H-pyrrolo[3,4-b]pyridin-5-one], at Human M2, the Emax at 30 µM turned out to be 53% and the EC50 stood at 3750 nM. At Human M4, the Emax at 30 µM is 76% and the EC50 is 65 nM.

(Values after patent US12552790B2, “Positive modulators of the muscarinic acetylcholine receptor M4” (Vanderbilt University, priority 2023, dated 2026).)
